Source: ChEMBL document CHEMBL1124314, “Development of phosphonate derivatives of gadolinium chelates for NMR imaging of calcified soft tissues” (J Med Chem, 1989)
Values belong to the molecule of their own block, whether it stands above or below them.

Tests used:
[1] = Ratio of uptake of [GD] in bone 1 hr post injection with 0.002 to that of blood; format: functional
[2] = Ratio of uptake of [GD] in bone 1 hr post injection with 0.002 to that of muscle; format: functional
Rattus norvegicus [3] = species: Rattus norvegicus; assay: Uptake of [GD] in bone 1 hr post injection with 0.0005 of the compound; format: functional, Bone element
Rattus norvegicus [4] = species: Rattus norvegicus; assay: Uptake of [GD] in bone 1 hr post injection with 0.002 of the compound; format: functional, Bone element
Rattus norvegicus [5] = species: Rattus norvegicus; assay: Biodistribution in rat kidney in the presence of NCAGd/0.01 M lig; format: ADME, organism-based; details: in vivo
Rattus norvegicus [6] = species: Rattus norvegicus; assay: Biodistribution in rat spleen in the presence of NCAGd/0.01 M lig; format: ADME, organism-based; details: in vivo
Rattus norvegicus [7] = species: Rattus norvegicus; assay: Biodistribution in rat blood in the presence of NCAGd/0.01 M lig; format: ADME, organism-based; details: in vivo
[8] = Ratio of uptake of [GD] in bone 1 hr post injection with 0.005 to that of blood; format: functional
Rattus norvegicus [9] = species: Rattus norvegicus; assay: Biodistribution in rat bone in the presence of NCAGd/0.01 M lig; format: ADME, organism-based, Bone element; details: in vivo
Rattus norvegicus [10] = species: Rattus norvegicus; assay: Biodistribution in rat heart in the presence of NCAGd/0.01 M lig; format: ADME, organism-based; details: in vivo
Rattus norvegicus [11] = species: Rattus norvegicus; assay: Biodistribution in rat muscle in the presence of NCAGd/0.01 M lig; format: ADME, organism-based, Muscle tissue; details: in vivo
[12] = Ration of Uptake of [GD] in bone 1 hr post injection with NCA GD dose to that of muscle; format: functional
Rattus norvegicus [13] = species: Rattus norvegicus; assay: Uptake of [GD] in bone 1 hr post injection with 0.005 of the compound; format: functional, Bone element
[14] = Ratio of uptake of [GD] in bone 1 hr post injection with 0.005 to that of muscle; format: functional
Rattus norvegicus [15] = species: Rattus norvegicus; assay: Biodistribution in rat liver by in the presence of NCAGd/0.01 M lig; format: ADME, organism-based; details: in vivo
[16] = Ratio of uptake of [GD] in bone 1 hr post injection with 0.0005 to that of muscle; format: functional
[17] = Ratio of uptake of [GD] in bone 1 hr post injection with 0.0005 to that of blood; format: functional
[18] = Ratio of uptake of [GD] in bone 1 hr post injection with NCA GD dose to that of blood; format: functional
Rattus norvegicus [19] = species: Rattus norvegicus; assay: Uptake of [GD] in bone 1 hr post injection with NCA GD dose; format: functional, Bone element
Rattus norvegicus [20] = species: Rattus norvegicus; assay: Uptake of [GD] in bone 1 h post injection with 0.01 of the compound; format: functional, Bone element
[21] = Ratio of uptake of [GD] in bone 1 hr post injection with 0.01 to that of blood; format: functional
Rattus norvegicus [22] = species: Rattus norvegicus; assay: Uptake of [GD] in bone 1 hr post injection with 0.05 of the compound; format: functional, Bone element
[23] = Ratio of uptake of [GD] in bone 1 hr post injection with 0.10 to that of muscle; format: functional
Rattus norvegicus [24] = species: Rattus norvegicus; assay: Uptake of [GD] in bone 1 hr post injection with 0.10 of the compound; format: functional, Bone element
[25] = Ratio of uptake of [GD] in bone 1 hr post injection with 0.05 to that of muscle; format: functional
[26] = Ratio of uptake of [GD] in bone 1 hr post injection with 0.05 to that of blood; format: functional
[27] = Ratio of uptake of [GD] in bone 1 hr post injection with 0.10 to that of blood; format: functional
[28] = Uptake of [GD] in bone 1 hr post injection with 0.01 to that of muscle; format: functional, Muscle tissue
Rattus norvegicus [29] = species: Rattus norvegicus; assay: Uptake of [GD] in bone 1 hr post injection with 0.01 (N) of the compound
[30] = Ratio of uptake of [GD] in bone 1 hr post injection with 0.01 (N) to that of muscle
[31] = Ratio of uptake of [GD] in bone 1 hr post injection with 0.01 to that of muscle; format: functional
[32] = Ratio of uptake of [GD] in bone 1 hr post injection with 0.01 (N) to that of blood

ID/organ (Rattus norvegicus [5]): 2.87%
ID/organ (Rattus norvegicus [6]): 0.44%
ID/organ (Rattus norvegicus [7]): 3.12%
ID/organ (Rattus norvegicus [9]): 51.4%
ID/organ (Rattus norvegicus [10]): 0.295%
ID/organ (Rattus norvegicus [11]): 5.85%
ID/organ (Rattus norvegicus [15]): 28.5%
Structure (SMILES): CC(O)C(C)NCCNC(C)C(C)O (stereo unspecified)
Ratio [1]: 0.206%
Ratio [2]: 1.81%
ID (Rattus norvegicus [3]): 6.54%
ID (Rattus norvegicus [4]): 6.9%
Ratio [8]: 0.167%
Ratio [12]: 8.81%
ID (Rattus norvegicus [13]): 5.07%
Ratio [14]: 1.67%
Ratio [16]: 2.19%
Ratio [17]: 0.234%
Ratio [18]: 16.5%
ID (Rattus norvegicus [19]): 51.4%

Structure (SMILES): O=C(O)CN(CCN(CC(=O)O)CC(=O)O)CCN(CC(=O)O)CC(=O)NCCCP(=O)(O)OP(=O)(O)O
ID (Rattus norvegicus [20]): 22.9%
Ratio [21]: 2.12
ID (Rattus norvegicus [22]): 17.6%
Ratio [23]: 2.76
ID (Rattus norvegicus [24]): 13.7%
Ratio [25]: 3.38
Ratio [26]: 6.42
Ratio [27]: 8.56
Ratio [28]: 5.39

ID/organ (Rattus norvegicus [5]): 2.75%
ID/organ (Rattus norvegicus [6]): 0.13%
ID/organ (Rattus norvegicus [7]): 2.31%
ID/organ (Rattus norvegicus [9]): 59.6%
ID/organ (Rattus norvegicus [10]): 0.315%
ID/organ (Rattus norvegicus [11]): 6.25%
ID/organ (Rattus norvegicus [15]): 21.5%
Structure (SMILES): CC(CO)NCCNC(C)C(C)O (stereo unspecified)
ID (Rattus norvegicus [29]): 3.33%
ID (Rattus norvegicus [20]): 6.88%
Ratio [30]: 1.55%
Ratio [31]: 1.22%
Ratio [32]: 0.18%
ID (Rattus norvegicus [19]): 59.6%
